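Step 1: Grow cells in 96-well plates. Step 2: Expose to compound for 48 hours at 5 concentrations. Step 3: Interpolate endpoints linearly; if unreached, use highest concentration. At the GI50, growth is halved. TGI denotes the concentration required for complete inhibition of growth.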
Assays:
Assay in all cases: NCI-60 cell line screen, 48 h
[1] = tested on: BT-549 breast
[2] = tested on: SN12C renal
[3] = tested on: MDA-MB-231 breast
[4] = tested on: NCI-H522 lung
[5] = tested on: HCC-2998 colon
[6] = tested on: K-562 leukemia
[7] = tested on: CCRF-CEM leukemia
[8] = tested on: T-47D breast
[9] = tested on: NCI-H23 lung
[10] = tested on: A498 renal

| SMILES | TGI [1] | TGI [2] | TGI [3] | TGI [4] | TGI [5] | TGI [6] | TGI [7] | TGI [8] | TGI [9] | TGI [10] | GI50 [1] | GI50 [2] | GI50 [3] | GI50 [4] | GI50 [5] | GI50 [6] | GI50 [7] | GI50 [8] | GI50 [9] | GI50 [10] |
| --- | --- | --- | --- | --- | --- | --- | --- | --- | --- | --- | --- | --- | --- | --- | --- | --- | --- | --- | --- | --- |
| COC(=O)C12CCC(C)(C)CC1C1=CCC3C4(C)CC(O)C(O)C(C)(C(=O)OC)C4CCC3(C)C1(CO)CC2 (stereo not given) | 28.8 µM | 33.2 µM | 33.5 µM | 35.2 µM | 27.2 µM | > 100 µM | 80.2 µM | 24 µM | 32.2 µM | 33.2 µM |  |  |  |  |  |  |  |  |  |  |
| ClCCCSSCCCCl | 57.9 µM | > 95.1 µM | > 80.2 µM | 65.6 µM | > 88.2 µM | > 100 µM | > 43.9 µM | > 100 µM | > 100 µM | > 100 µM |  |  |  |  |  |  |  |  |  |  |
| C[C@@H](N)COc1ccc(-c2cnc3ccc(N[C@H](C)c4cccc(F)c4)nn23)cc1 | 3.33 µM | 10.4 µM | 3.19 µM | 3.17 µM | 4.97 µM | 6.96 µM | 7.88 µM | 3.35 µM | 13.1 µM | 5.58 µM | 1.68 µM | 2.02 µM | 1.48 µM | 1.42 µM | 2.01 µM | 1.95 µM | 2.68 µM | 1.5 µM | 2.96 µM | 1.52 µM |
| CS(=O)(=O)N1CCC(n2c(=O)c(Oc3ccc(F)cc3F)cc3cnc(NC4CCOCC4)nc32)CC1 | > 25 µM | > 25 µM | > 25 µM | > 25 µM | > 25 µM | > 25 µM | > 25 µM | > 25 µM | > 25 µM | > 25 µM | 24.5 µM | > 25 µM | > 25 µM | > 25 µM | > 25 µM | > 25 µM | > 25 µM | > 20.8 µM | > 25 µM | 3.18 µM |
| COc1cc2c(NCCCCCO)ncnc2c(OC)c1OC | > 100 µM | > 100 µM | > 100 µM | > 100 µM | > 100 µM | > 100 µM | > 100 µM | > 100 µM | > 100 µM | > 100 µM |  |  |  |  |  |  |  |  |  |  |
| COc1cc(OC)cc(Oc2cnc3cc(N)cc(N)c3n2)c1 | 39.2 µM | 29.3 µM | 21 µM | 37.3 µM | 28.8 µM | 46.8 µM | > 100 µM | 42.4 µM | 28.8 µM | 39.9 µM | 17.2 µM | 15.8 µM | 6.56 µM | 18.7 µM | 14.6 µM | 20.2 µM | 28.5 µM | 13.6 µM | 14.6 µM | 11.8 µM |
| CN1CCN(C(=O)[C@@]2(C)CC[C@]3(C)CC[C@]4(C)C(=CC[C@@H]5[C@@]6(C)CCC(=O)NC(C)(C)[C@@H]6CC[C@]54C)[C@@H]3C2)CC1 | 3.28 µM | 3.3 µM | 3.47 µM | 3.75 µM | 3.04 µM | 3.02 µM | 4.43 µM | 4.21 µM | 8.91 µM | 12.1 µM | 1.58 µM | 1.46 µM | 1.7 µM | 1.78 µM | 1.51 µM | 1.07 µM | 1.58 µM | 1.62 µM | 2.48 µM | 2.68 µM |

From PubChem BioAssay (NCI)
